Assay [1] relates to B16 cells. In words: In vitro MITF induction in B16 cells. Type of assay: cell-based, mouse. The note with it: for maximal fold induction / EC50: Mus musculus, Table 5; for maximal fold induction: B16 cells, read-out: Highest fold mitf induction in B16 cells; for Highest fold Mitf induction: Table 6, cells not given, same values as Table 5 (B16 cells); for EC50: readout not given, presumably mitf induction in B16 cells. The procedure: qPCR. mRNA was extracted from cells using the RNeasy Mini Kit (Qiagen®). KAPA SYBR® FAST Universal One-Step qRT-PCR Kit (KAPA BIOSYSTEMS®) was used to prepare mRNA samples for qPCR and samples were analyzed using the 7500 Fast Real Time PCR System (Applied Biosystems®). The relative expression of each gene was calculated by 7500 Fast System Software program, which utilizes Ct normalized to mRNA levels of RPL11 to calculate relative expression. Results are reported relative to control cells.
Tables 2 to 5 below show the effects of exemplary […] compounds on skin darkening, including an in vitro test of MITF induction following the same protocol as described above in paragraph 333, wherein exemplary SIK inhibitor compounds were tested for their in vitro induction of MITF.
Table 5 below additionally provides characteristics of exemplary SIK inhibitor compounds, MITF induction in B16 cells, EC50, log P, and experimental conditions for skin darkening experiments in mice and humans.

Assay [2] concerns human breast skin explants. The assay is described as follows: Human skin explants: darkening/pigmentation after topical SIK inhibitor. Type of assay: cell-based. As to conditions: Human Skin Explants. As for the experimental part: Image and Colorimeter analysis were conducted 24 hours after the last treatment.
Human pigmentation experiments. Full thickness human breast skin explants were cultured in petri dishes with a solid phase and liquid phase phenol red free DMEM medium with […], 5% fungizone (Gibco®), and 10% FBS. Passive application refers to simply applying the treatment to skin without further rubbing or manipulation. Mechanical application refers to application of agents to skin with further rubbing of treatment with 10 clockwise turns of a gloved cotton swab applicator. Skin was harvested, fixed, and processed for paraffin embedding. Sections were cut from paraffin blocks, and sections were stained utilizing hematoxylin and eosin (morphology) and Fontana-Masson (melanin).

The mark [3] stands for this setting: Table 2, passive topical application.

In the case of `Cc1cccc(C)c1NC(=O)N1C/C=C\COc2cccc(c2)Nc2cc1ncn2` [HG-10-32-01], in assay [1], the maximal fold induction came out at 2.4 and the “Highest fold Mitf induction” value turned out to be 2.4 fold.
As for `CN1CCN(c2ccc(Nc3ncc4c(n3)N(C)C(=O)N(c3ccccc3)C4)cc2)CC1` [HG-11-137-01], in assay [2] (Table 3), the “Results (skin darkening)” value is “Darkens”. In addition, in assay [1], the maximal fold induction was found to be 4.82 and the “Highest fold Mitf induction” value was determined as 4.82 fold.
Consider `COc1cc(N2CCN(C)CC2)ccc1Nc1ncc2c(n1)N(C)C(=O)N(c1ccccc1)C2` [HG-11-139-02], for which, in assay [1], the maximal fold induction came out at 5.76 and the “Highest fold Mitf induction” value is 5.76 fold.
As usually defined, the EC50 is the midpoint of the concentration-response curve. High values mean a need for much substance, low ones an effect from little substance. Take `COc1ccc(N2C(=O)N(c3c(C)cccc3C)Cc3cnc(Nc4cc(N5CCOCC5)cc(N5CCN(C)CC5)c4)nc32)c(OC)c1` [HG-11-143-01]: in assay [1], the maximal fold induction stood at 6.8 and the 50% effective concentration (EC50) stood at 0.057 µM.
The corresponding values for `CCN1CCN(Cc2ccc(Nc3ncc4c(n3)N(c3ccc(OC)cc3OC)C(=O)N(c3c(C)cccc3C)C4)cc2C(F)(F)F)CC1` [YKL-04-103] are 10.2 and 0.001 µM.
Consider `COc1ccc(N2C(=O)N(c3c(C)cccc3C)Cc3cnc(Nc4ccc(N5CCOCC5)c(C(F)(F)F)c4)nc32)c(OC)c1` [YKL-04-104], for which, in assay [1], the maximal fold induction came out at 8 and the EC50 was found to be 0.021 µM.
The corresponding values for `COc1ccc(N2C(=O)N(c3c(C)cccc3C)Cc3cnc(Nc4cnn(C5CCOCC5)c4)nc32)c(OC)c1` [YKL-04-105] are 9.9 and 0.005 µM.
The matching figures for `COc1ccc(N2C(=O)N(c3c(C)cccc3C)Cc3cnc(Nc4cccc(OCCN5CCOCC5)c4)nc32)c(OC)c1` [YKL-04-106]: 9 and 0.074 µM.
With `COc1ccc(N2C(=O)N(c3c(C)cccc3C)Cc3cnc(Nc4cc(C)c(OCCN5CCOCC5)c(C)c4)nc32)c(OC)c1` [YKL-04-107], in assay [1], the maximal fold induction is 3.6 and the EC50 stood at 0.015 µM.
For the molecule `COc1ccc(N2C(=O)N(c3c(C)cccc3C)Cc3cnc(Nc4ccc(CCCN5CCOCC5)cc4)nc32)c(OC)c1` [YKL-04-108], in assay [2] (Table 3), the “Results (skin darkening)” value is reported as “Darkens”. Moreover, in assay [1], the maximal fold induction was 13.9 and the midpoint of the response, the EC50, lay at 0.014 µM.
In the case of `COc1ccc(N2C(=O)N(c3c(C)cccc3C)Cc3cnc(Nc4cc(N5CCN(C)CC5)cc(C(F)(F)F)c4)nc32)c(OC)c1` [YKL-04-112], in assay [1], the maximal fold induction is 5.2 and it took 0.215 µM to reach a half-maximal effect (EC50).
On to `COc1ccc(N2C(=O)N(c3c(C)cccc3C)Cc3cnc(Nc4cc(N5CCOCC5)cc(C(F)(F)F)c4)nc32)c(OC)c1` [YKL-04-113], for which, in assay [1], the maximal fold induction is 11.2 and a half-maximal response (EC50) required 0.657 µM.
The matching figures for `COc1ccc(N2C(=O)N(c3c(C)cccc3C)Cc3cnc(Nc4ccc(N5CCN(C)CC5)c(OC)c4)nc32)c(OC)c1` [YKL-04-114]: 10.4 and 0.067 µM.
`COc1ccc(N2C(=O)N(c3c(C)cccc3C)Cc3cnc(Nc4ccc(N5CCOCC5)c(OC)c4)nc32)c(OC)c1` [YKL-04-115]: in assay [1], the maximal fold induction turned out to be 10.1 and the EC50 was 0.024 µM.
The corresponding values for `COc1ccc(N2C(=O)N(c3c(C)cccc3C)Cc3cnc(Nc4cc(CN5CCOCC5)cc(C(F)(F)F)c4)nc32)c(OC)c1` [YKL-04-118] are 1.1 and 1420 µM.
The corresponding values for `COc1ccc(N2C(=O)N(c3c(C)cccc3C)Cc3cnc(Nc4cc(CN5CCN(C)CC5)cc(C(F)(F)F)c4)nc32)c(OC)c1` [YKL-04-125] are 9.7 and 0.133 µM.
As for `COc1ccc(N2C(=O)N(c3c(C)cccc3C)Cc3cnc(Nc4ccc(CN5CCN(C)CC5)cc4)nc32)c(OC)c1` [YKL-04-136-01], in assay [1], the maximal fold induction is 9.7 and a half-maximal effect (EC50) was put at 0.053 µM.
The corresponding values for `COc1ccc(N2C(=O)N(c3c(C)cccc3C)Cc3cnc(Nc4cnn(CCN(C)C)c4)nc32)c(OC)c1` [YKL-04-136-02] are 16.1 and 0.021 µM.
As to `COc1ccc(N2C(=O)N(c3c(C)cccc3Cl)Cc3cnc(Nc4ccc(N5CCN(C)CC5)cc4)nc32)c(OC)c1` [YKL-04-136-03], in assay [1], the maximal fold induction stood at 6.2 and a half-maximal response (EC50) required 0.025 µM.
The matching figures for `COc1ccc(N2C(=O)N(c3c(C)cccc3Cl)Cc3cnc(Nc4cnn(CCN(C)C)c4)nc32)c(OC)c1` [YKL-04-136-04]: 9.2 and 0.015 µM.
The matching figures for `COc1cc(N2CCN(C(C)=O)CC2)ccc1N1C(=O)N(c2c(C)cccc2C)Cc2cnc(Nc3ccc(N4CCN(C)CC4)cc3)nc21` [YKL-04-136-05]: 8.9 and 0.042 µM.
For the molecule `COc1ccc(N2C(=O)N(c3c(C)cccc3C)Cc3cnc(Nc4ccc(N5CCN(C)CC5)cc4)nc32)nc1` [YKL-04-136-06], in assay [1], the maximal fold induction was found to be 26.9 and the EC50 came to 0.009 µM.
The matching figures for `COc1cc(N2CCN(C(C)=O)CC2)ccc1N1C(=O)N(c2c(C)cccc2C)Cc2cnc(Nc3cnn(CCN(C)C)c3)nc21` [YKL-04-136-07]: 2.4 and 0.127 µM.
Regarding `COc1ccc(N2C(=O)N(c3c(C)cccc3C)Cc3cnc(Nc4cnn(CCN(C)C)c4)nc32)nc1` [YKL-04-136-08], in assay [1], the maximal fold induction is 4.1 and the half-maximal effective concentration (EC50) worked out at 0.014 µM.
As for `COc1ccc(N2C(=O)N(c3c(C)cccc3C)Cc3cnc(Nc4ccc(CN5CCN(C)CC5)cc4)nc32)nc1` [YKL-04-136-10], in assay [1], the maximal fold induction was 16.3 and the “Highest fold Mitf induction” value is given as 16.28 fold.
For `COc1cc(N2CCN(C(C)=O)CC2)ccc1N1C(=O)N(c2c(C)cccc2C)Cc2cnc(Nc3ccc(CN4CCN(C)CC4)cc3)nc21` [YKL-04-136-11], in assay [1], the maximal fold induction came to 9.58 and the “Highest fold Mitf induction” value is reported as 9.58 fold.
In the case of `Cc1cccc(C)c1N1Cc2cnc3nc2N(C/C=C/COCc2cccc(c2)N3)C1=O` [YKL-05-200-2], the “Results (skin darkening)” value in assay [2] (setting [3]) and in assay [2] (Table 4) was “Darkens” each time.
As to `Cc1cccc(Cl)c1N1Cc2cnc3nc2N(C/C=C\CCOc2cccc(c2)N3)C1=O` [YKL-05-201-1], the “Results (skin darkening)” value in assay [2] (setting [3]) and in assay [2] (Table 4) was “Darkens” each time.
Take `Cc1cccc(C)c1N1Cc2cnc3nc2N(C/C=C\COc2cc(ccc2N2CCN(C)CC2)N3)C1=O` [YKL-05-204-1]: the “Results (skin darkening)” value in assay [2] (setting [3]) and in assay [2] (Table 4) was “Darkens” throughout.
As for `Cc1cccc(C)c1N1Cc2cnc3nc2N(C/C=C/COc2cc(ccc2N2CCN(C)CC2)N3)C1=O` [YKL-05-204-2], the “Results (skin darkening)” value in assay [2] (setting [3]) and in assay [2] (Table 4) was “Darkens” each time.
On to `Cc1cccc(C)c1N1Cc2cnc(Nc3ccc(N4CCN(C)CC4)cc3)nc2N(C)C1=O` [YKL-06-29], for which the “Results (skin darkening)” value in assay [2] (setting [3]) and in assay [2] (Table 4) was “Darkens” each time.
Consider `Cc1cccc(C)c1N1Cc2cnc(Nc3ccc(N4CCN(C)CC4)cc3)nc2N(C(C)C)C1=O` [YKL-06-058], for which the “Results (skin darkening)” value in assay [2] (setting [3]) and in assay [2] (Table 4) was “Darkens” in each case.
With `Cc1cccc(C)c1N1Cc2cnc(Nc3ccc(N4CCN(C)CC4)cc3)nc2N(C2CCC2)C1=O` [YKL-06-060], the “Results (skin darkening)” value in assay [2] (setting [3]) and in assay [2] (Table 4) was “Darkens” throughout.

The values above are taken from patent publication US11285158B2, “Uses of pyrimidopyrimidinones as SIK inhibitors” (The General Hospital Corporation, priority 2017, dated 2022).
